This note sets out measurements from patent publication US9562085B2, “Antimicrobial peptide” (priority 2013, dated 2017).

Non-standard residues stand in square brackets, D forms with d. Residues, ends and D or L forms follow the SMILES beside them. Bounds are passed on as bounds.

For the first assay, the system named is S. aureus JAR. It is filed as cell-based. To be noted: JAR, 2 h. How it is done: S. aureus JAR is described in Campoccia et al. (Int. J. Artif. Organs, 2008 September; 31(9):841-7).
For the in vitro killing assay with P10 variants, S. aureus JAR ([…] CFU/ml) were incubated for 2 hours at 37° C. with various concentrations of the peptides in PBS or in PBS/human plasma (1/1, v/v). […] The LC99.9 is the average value of two independent experiments.
For `CC[C@@H](C)[C@@H](NC(=O)[C@H](NC(=O)[C@@H](CCC(=O)O)NC(=O)[C@@H](CCCCN)NC(=O)[C@@H](CC(C)C)NC(=O)[C@@H](CCCCN)NC(=O)[C@@H](CCCNC(=N)N)NC(=O)[C@@H](Cc1c[nH]c2ccccc12)NC(=O)[C@@H](CC(C)C)NC(=O)[C@@H](CCCNC(=N)N)NC(=O)[C@@H](CCC(N)=O)NC(=O)[C@H](NC(=O)[C@@H](CC(C)C)NC(=O)[C@@H](CCCNC(=N)N)NC(=O)[C@H](NC(=O)[C@@H](CC(C)C)NC(=O)[C@H](N)CCCNC(=N)N)[C@H](C)O)C(C)C)C(C)C)C(=O)N[C@H](CCCCN)C(=O)N[C@H](CCCCN)C(=O)N[C@H](Cc1ccc(O)cc1)C(=O)N[C@H](CCC(=O)O)C(=O)N[C@H](CCCNC(=N)N)C(=O)N[C@H](C)C(=O)N[C@H](CC(C)C)C(N)=O` [Peptide 1241-03, rltrlvqrlwrklkevikkyeralB] (H-[dR][dL][dT][dR][dL][dV][dQ][dR][dL][dW][dR][dK][dL][dK][dE][dV][dI][dK][dK][dY][dE][dR][dA][dL]-NH2), the “LC99.9 (μM) (50% plasma)” value is >102.4 µM and the “LC99.9 (μM) (PBS)” value is 3.2 µM.
With `CC[C@H](C)[C@H](NC(=O)[C@H](CCCCN)NC(=O)[C@H](CCCCN)NC(=O)[C@H](Cc1ccc(O)cc1)NC(=O)[C@H](CCC(=O)O)NC(=O)[C@H](CCCNC(=N)N)NC(=O)[C@H](C)NC(=O)[C@@H](CC(C)C)NC(C)=O)C(=O)N[C@H](C(=O)N[C@@H](CCC(=O)O)C(=O)N[C@@H](CCCCN)C(=O)N[C@@H](CC(C)C)C(=O)N[C@@H](CCCCN)C(=O)N[C@@H](CCCNC(=N)N)C(=O)N[C@@H](Cc1c[nH]c2ccccc12)C(=O)N[C@@H](CC(C)C)C(=O)N[C@@H](CCCNC(=N)N)C(=O)N[C@@H](CCC(N)=O)C(=O)N[C@H](C(=O)N[C@@H](CC(C)C)C(=O)N[C@@H](CCCNC(=N)N)C(=O)N[C@H](C(=O)N[C@@H](CC(C)C)C(=O)N[C@@H](CCCNC(=N)N)C(N)=O)[C@@H](C)O)C(C)C)C(C)C` [Peptide 1301-1, JlAREYKKIVEKLKRWLRQVLRTLRB] (Ac-[dL]AREYKKIVEKLKRWLRQVLRTLR-NH2), the “LC99.9 (μM) (50% plasma)” value is 38.4 µM and the “LC99.9 (μM) (PBS)” value is 0.6 µM.
Regarding `CC[C@H](C)[C@H](NC(=O)[C@H](CCCCN)NC(=O)[C@H](CCCCN)NC(=O)[C@H](Cc1ccc(O)cc1)NC(=O)[C@H](CCC(=O)O)NC(=O)[C@H](CCCNC(=N)N)NC(=O)[C@@H](C)NC(=O)[C@H](CC(C)C)NC(C)=O)C(=O)N[C@H](C(=O)N[C@@H](CCC(=O)O)C(=O)N[C@@H](CCCCN)C(=O)N[C@@H](CC(C)C)C(=O)N[C@@H](CCCCN)C(=O)N[C@@H](CCCNC(=N)N)C(=O)N[C@@H](Cc1c[nH]c2ccccc12)C(=O)N[C@@H](CC(C)C)C(=O)N[C@@H](CCCNC(=N)N)C(=O)N[C@@H](CCC(N)=O)C(=O)N[C@H](C(=O)N[C@@H](CC(C)C)C(=O)N[C@@H](CCCNC(=N)N)C(=O)N[C@H](C(=O)N[C@@H](CC(C)C)C(=O)N[C@@H](CCCNC(=N)N)C(N)=O)[C@@H](C)O)C(C)C)C(C)C` [Peptide 1301-2, JLaREYKKIVEKLKRWLRQVLRTLRB] (Ac-L[dA]REYKKIVEKLKRWLRQVLRTLR-NH2), the “LC99.9 (μM) (50% plasma)” value was 38.4 µM and the “LC99.9 (μM) (PBS)” value turned out to be 0.6 µM.
`CC[C@H](C)[C@H](NC(=O)[C@H](CCCCN)NC(=O)[C@H](CCCCN)NC(=O)[C@H](Cc1ccc(O)cc1)NC(=O)[C@H](CCC(=O)O)NC(=O)[C@@H](CCCNC(=N)N)NC(=O)[C@H](C)NC(=O)[C@H](CC(C)C)NC(C)=O)C(=O)N[C@H](C(=O)N[C@@H](CCC(=O)O)C(=O)N[C@@H](CCCCN)C(=O)N[C@@H](CC(C)C)C(=O)N[C@@H](CCCCN)C(=O)N[C@@H](CCCNC(=N)N)C(=O)N[C@@H](Cc1c[nH]c2ccccc12)C(=O)N[C@@H](CC(C)C)C(=O)N[C@@H](CCCNC(=N)N)C(=O)N[C@@H](CCC(N)=O)C(=O)N[C@H](C(=O)N[C@@H](CC(C)C)C(=O)N[C@@H](CCCNC(=N)N)C(=O)N[C@H](C(=O)N[C@@H](CC(C)C)C(=O)N[C@@H](CCCNC(=N)N)C(N)=O)[C@@H](C)O)C(C)C)C(C)C` [Peptide 1301-3, JLArEYKKIVEKLKRWLRQVLRTLRB] (Ac-LA[dR]EYKKIVEKLKRWLRQVLRTLR-NH2): the “LC99.9 (μM) (50% plasma)” value turned out to be 38.4 µM and the “LC99.9 (μM) (PBS)” value turned out to be 0.6 µM.
On to `CC[C@H](C)[C@H](NC(=O)[C@H](CCCCN)NC(=O)[C@H](CCCCN)NC(=O)[C@H](Cc1ccc(O)cc1)NC(=O)[C@@H](CCC(=O)O)NC(=O)[C@H](CCCNC(=N)N)NC(=O)[C@H](C)NC(=O)[C@H](CC(C)C)NC(C)=O)C(=O)N[C@H](C(=O)N[C@@H](CCC(=O)O)C(=O)N[C@@H](CCCCN)C(=O)N[C@@H](CC(C)C)C(=O)N[C@@H](CCCCN)C(=O)N[C@@H](CCCNC(=N)N)C(=O)N[C@@H](Cc1c[nH]c2ccccc12)C(=O)N[C@@H](CC(C)C)C(=O)N[C@@H](CCCNC(=N)N)C(=O)N[C@@H](CCC(N)=O)C(=O)N[C@H](C(=O)N[C@@H](CC(C)C)C(=O)N[C@@H](CCCNC(=N)N)C(=O)N[C@H](C(=O)N[C@@H](CC(C)C)C(=O)N[C@@H](CCCNC(=N)N)C(N)=O)[C@@H](C)O)C(C)C)C(C)C` [Peptide 1301-4, JLAReYKKIVEKLKRWLRQVLRTLRB] (Ac-LAR[dE]YKKIVEKLKRWLRQVLRTLR-NH2), for which the “LC99.9 (μM) (50% plasma)” value was found to be 38.4 µM and the “LC99.9 (μM) (PBS)” value is 0.6 µM.
`CC[C@H](C)[C@H](NC(=O)[C@H](CCCCN)NC(=O)[C@H](CCCCN)NC(=O)[C@@H](Cc1ccc(O)cc1)NC(=O)[C@H](CCC(=O)O)NC(=O)[C@H](CCCNC(=N)N)NC(=O)[C@H](C)NC(=O)[C@H](CC(C)C)NC(C)=O)C(=O)N[C@H](C(=O)N[C@@H](CCC(=O)O)C(=O)N[C@@H](CCCCN)C(=O)N[C@@H](CC(C)C)C(=O)N[C@@H](CCCCN)C(=O)N[C@@H](CCCNC(=N)N)C(=O)N[C@@H](Cc1c[nH]c2ccccc12)C(=O)N[C@@H](CC(C)C)C(=O)N[C@@H](CCCNC(=N)N)C(=O)N[C@@H](CCC(N)=O)C(=O)N[C@H](C(=O)N[C@@H](CC(C)C)C(=O)N[C@@H](CCCNC(=N)N)C(=O)N[C@H](C(=O)N[C@@H](CC(C)C)C(=O)N[C@@H](CCCNC(=N)N)C(N)=O)[C@@H](C)O)C(C)C)C(C)C` [Peptide 1301-5, JLAREyKKIVEKLKRWLRQVLRTLRB] (Ac-LARE[dY]KKIVEKLKRWLRQVLRTLR-NH2): the “LC99.9 (μM) (50% plasma)” value stood at 38.4 µM and the “LC99.9 (μM) (PBS)” value was determined as 0.6 µM.
As for `CC[C@H](C)[C@H](NC(=O)[C@H](CCCCN)NC(=O)[C@@H](CCCCN)NC(=O)[C@H](Cc1ccc(O)cc1)NC(=O)[C@H](CCC(=O)O)NC(=O)[C@H](CCCNC(=N)N)NC(=O)[C@H](C)NC(=O)[C@H](CC(C)C)NC(C)=O)C(=O)N[C@H](C(=O)N[C@@H](CCC(=O)O)C(=O)N[C@@H](CCCCN)C(=O)N[C@@H](CC(C)C)C(=O)N[C@@H](CCCCN)C(=O)N[C@@H](CCCNC(=N)N)C(=O)N[C@@H](Cc1c[nH]c2ccccc12)C(=O)N[C@@H](CC(C)C)C(=O)N[C@@H](CCCNC(=N)N)C(=O)N[C@@H](CCC(N)=O)C(=O)N[C@H](C(=O)N[C@@H](CC(C)C)C(=O)N[C@@H](CCCNC(=N)N)C(=O)N[C@H](C(=O)N[C@@H](CC(C)C)C(=O)N[C@@H](CCCNC(=N)N)C(N)=O)[C@@H](C)O)C(C)C)C(C)C` [Peptide 1301-6, JLAREYkKIVEKLKRWLRQVLRTLRB] (Ac-LAREY[dK]KIVEKLKRWLRQVLRTLR-NH2), the “LC99.9 (μM) (50% plasma)” value came to 38.4 µM and the “LC99.9 (μM) (PBS)” value is 0.6 µM.
Turning to `CC[C@H](C)[C@H](NC(=O)[C@@H](CCCCN)NC(=O)[C@H](CCCCN)NC(=O)[C@H](Cc1ccc(O)cc1)NC(=O)[C@H](CCC(=O)O)NC(=O)[C@H](CCCNC(=N)N)NC(=O)[C@H](C)NC(=O)[C@H](CC(C)C)NC(C)=O)C(=O)N[C@H](C(=O)N[C@@H](CCC(=O)O)C(=O)N[C@@H](CCCCN)C(=O)N[C@@H](CC(C)C)C(=O)N[C@@H](CCCCN)C(=O)N[C@@H](CCCNC(=N)N)C(=O)N[C@@H](Cc1c[nH]c2ccccc12)C(=O)N[C@@H](CC(C)C)C(=O)N[C@@H](CCCNC(=N)N)C(=O)N[C@@H](CCC(N)=O)C(=O)N[C@H](C(=O)N[C@@H](CC(C)C)C(=O)N[C@@H](CCCNC(=N)N)C(=O)N[C@H](C(=O)N[C@@H](CC(C)C)C(=O)N[C@@H](CCCNC(=N)N)C(N)=O)[C@@H](C)O)C(C)C)C(C)C` [Peptide 1301-7, JLAREYKkIVEKLKRWLRQVLRTLRB] (Ac-LAREYK[dK]IVEKLKRWLRQVLRTLR-NH2), the “LC99.9 (μM) (50% plasma)” value was 25.6 µM and the “LC99.9 (μM) (PBS)” value turned out to be 0.6 µM.
The like results for `CC[C@@H](C)[C@@H](NC(=O)[C@H](CCCCN)NC(=O)[C@H](CCCCN)NC(=O)[C@H](Cc1ccc(O)cc1)NC(=O)[C@H](CCC(=O)O)NC(=O)[C@H](CCCNC(=N)N)NC(=O)[C@H](C)NC(=O)[C@H](CC(C)C)NC(C)=O)C(=O)N[C@H](C(=O)N[C@@H](CCC(=O)O)C(=O)N[C@@H](CCCCN)C(=O)N[C@@H](CC(C)C)C(=O)N[C@@H](CCCCN)C(=O)N[C@@H](CCCNC(=N)N)C(=O)N[C@@H](Cc1c[nH]c2ccccc12)C(=O)N[C@@H](CC(C)C)C(=O)N[C@@H](CCCNC(=N)N)C(=O)N[C@@H](CCC(N)=O)C(=O)N[C@H](C(=O)N[C@@H](CC(C)C)C(=O)N[C@@H](CCCNC(=N)N)C(=O)N[C@H](C(=O)N[C@@H](CC(C)C)C(=O)N[C@@H](CCCNC(=N)N)C(N)=O)[C@@H](C)O)C(C)C)C(C)C` [Peptide 1301-8, JLAREYKKiVEKLKRWLRQVLRTLRB] (Ac-LAREYKK[dI]VEKLKRWLRQVLRTLR-NH2) were, in that order, 38.4 µM and 0.6 µM.

The assay is the same for the next values; noted with them: statements referring to Tables 2-6.
As for `CC[C@@H](C)[C@@H](NC(=O)[C@H](NC(=O)[C@@H](CCC(=O)O)NC(=O)[C@@H](CCCCN)NC(=O)[C@@H](CC(C)C)NC(=O)[C@@H](CCCCN)NC(=O)[C@@H](CCCNC(=N)N)NC(=O)[C@@H](Cc1c[nH]c2ccccc12)NC(=O)[C@@H](CC(C)C)NC(=O)[C@@H](CCCNC(=N)N)NC(=O)[C@@H](CCC(N)=O)NC(=O)[C@H](NC(=O)[C@@H](CC(C)C)NC(=O)[C@@H](CCCNC(=N)N)NC(=O)[C@H](NC(=O)[C@@H](CC(C)C)NC(=O)[C@H](N)CCCNC(=N)N)[C@H](C)O)C(C)C)C(C)C)C(=O)N[C@H](CCCCN)C(=O)N[C@H](CCCCN)C(=O)N[C@H](Cc1ccc(O)cc1)C(=O)N[C@H](CCC(=O)O)C(=O)N[C@H](CCCNC(=N)N)C(=O)N[C@H](C)C(=O)N[C@H](CC(C)C)C(N)=O` [Peptide 1241-03, rltrlvqrlwrklkevikkyeralB] (H-[dR][dL][dT][dR][dL][dV][dQ][dR][dL][dW][dR][dK][dL][dK][dE][dV][dI][dK][dK][dY][dE][dR][dA][dL]-NH2), the “antimicrobial activity, in words” value was “possesses antimicrobial activity”.
